pEC50, pIC50: −log10 of the molar value. Like-named read-outs stand apart in the source and are kept apart here.

The target in assay [1] is T1, human 5-HT1A receptor (Homo sapiens, UniProt P08908).
T1 construct: expressed in transfected cells; host or cells: CHO-K1
T1 sequence (P08908 1-422): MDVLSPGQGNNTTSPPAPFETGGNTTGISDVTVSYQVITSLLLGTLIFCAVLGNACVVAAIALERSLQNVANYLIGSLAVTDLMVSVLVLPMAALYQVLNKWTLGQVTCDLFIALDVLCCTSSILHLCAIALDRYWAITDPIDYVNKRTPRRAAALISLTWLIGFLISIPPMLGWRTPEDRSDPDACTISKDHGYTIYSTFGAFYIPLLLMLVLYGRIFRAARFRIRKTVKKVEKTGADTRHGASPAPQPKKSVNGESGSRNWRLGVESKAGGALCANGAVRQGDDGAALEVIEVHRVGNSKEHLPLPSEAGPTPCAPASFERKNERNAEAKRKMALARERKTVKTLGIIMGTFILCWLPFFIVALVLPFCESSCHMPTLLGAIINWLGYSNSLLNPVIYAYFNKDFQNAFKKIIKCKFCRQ
The assay can be described thus: Human 5-HT1A cAMP assay. The assay is classed as cell-based. To be noted: for Emax (% of serotonin): cAMP assay, CHO-K1 cells, relative to maximum response of serotonin. Here is the method:
Compound potency (EC50) and efficacy (Max response) against the human 5-HT1A receptor in stably transfected CHO-K1 cells were determined in a GPCR cell-based CAMP assay.
Cells were seeded in a total volume of 20 μL into white walled, 384-well microplates and incubated at 37° C. overnight before analysis. Prior to testing, cell plating media was exchanged with 10 μL of Assay buffer (HBSS+10 mM HEPES). Briefly, intermediate dilution of sample stocks were performed to generate 4× sample in assay buffer. 5 μL of 4× samples+5 μL of 4× forskolin were added to cells and incubated at 37° C. for 30 minutes (mins). The final assay vehicle concentration was 1%.
Cells were seeded in a total volume of 20 μL into white walled, 384-well microplates and incubated at 37° C. overnight before analysis. Prior to testing, cell plating media was exchanged with 10 μL of Assay buffer (HBSS+10 mM HEPES). Briefly, intermediate dilution of sample stocks was performed to generate 4× samples in assay buffer. 5 μL of 4× samples+5 μL of 4× forskolin was added to cells and incubated at 37° C. for 30 mins. The final assay vehicle concentration was 1%.
Background: Changes in cAMP serve as a functional read-out for many G protein-coupled receptors.

Assay [2] has as its target T2, human 5-HT2A receptor (Homo sapiens, UniProt P28223).
T2 construct: expressed in transfected cells; host or cells: U2OS
Put plainly: Human 5-HT2A β-arrestin reporter assay. Conditions: for Emax (% of serotonin): U2OS cells, relative to maximum response of serotonin. The assay is classed as cell-based. Here is the method:
Compound potency (EC50) and efficacy (Max response) against the human 5-HT2A receptor in stably transfected U2OS cells were determined in a G protein-coupled receptors (GPCR) cell based β-arrestin reporter assay.
Cells were seeded in a total volume of 20 μL into white walled, 384-well microplates and incubated at 37° C. overnight before analysis. For agonist determination, cells were incubated with samples to induce response. Intermediate dilution of sample stocks was performed to generate 5× samples in assay buffer. 5 μL of 5× samples were added to cells and incubated at 37° C. for 120 minutes. The final assay vehicle concentration was 1%. The results are expressed as percent efficacy relative to the maximum response of the control ligand (serotonin) in Table 10.
Compound potency (EC50) and efficacy (Max response) against the human 5-HT2A receptor in stably transfected U2OS cells was determined in a GPCR cell based β-arrestin reporter assay.
Cells were seeded in a total volume of 20 μL into white walled, 384-well microplates and incubated at 37° C. overnight before analysis. For agonist determination, cells were incubated with sample to induce response. Intermediate dilution of sample stocks was performed to generate 5× samples in assay buffer. 5 μL of 5× samples were added to cells and incubated at 37° C. for 120 mins. The final assay vehicle concentration was 1%. The results are expressed as percent efficacy relative to the maximum response of the control ligand (serotonin) in Table 48.
(In general: In a reporter assay the amount or activity of a reporter protein is the signal.)

In assay [3] the target is human 5-hydroxytryptamine receptor 2A (5-HT2A) (Homo sapiens, UniProt P28223). The assay can be described thus: biochemical. The assay is classed as binding. Here is the method: The objective of this study was to evaluate the binding properties of exemplary compounds of Formula (I) on 5-hydroxytryptamine receptor 2A (5-HT2A).
1. The assay buffer was prepared following Table 17 below.
2. 8 doses of reference and test compounds starting from 10 mM stock solution as required were prepared by 5-fold serial dilutions with 100% (v/v) DMSO.
3. UniFilter-96 GF/B plate was pretreated: • i. 50 μl/well of 0.5% (v/v) PEI was added to UniFilter-96 GF/C plates. The plates were sealed and incubated at 4° C. for 3 hours (hrs). • ii. After incubation, the plates were washed 3 times with ice-cold wash buffer (50 mM Tris, pH7.4).
4. The assay plate was prepared: • i. Cell membrane was diluted with assay buffer and 330 μl/well was added to 96 round deep well plates to reach a concentration of 20 μg/well. • ii. 8 concentrations of reference or test compounds were prepared and 110 μl/well was added to 96 round deep well plates. • iii. [3H]-ketanserin was diluted with assay buffer to 5 nM (5× final concentration) and 110 μl/well was added to 96 round deep well plates.
5. The plate was centrifuged at 1000 rpm for 30 seconds (secs) and then agitated at 600 rpm at room temperature for 5 min.
6. The plates were sealed and the plate incubated at 27° C. for 90 min.
7. The incubation was stopped by vacuum filtration onto GF/B filter plates followed by 4 times washing with ice-cold wash buffer (50 mM Tris, pH7.4).
8. The filter plates were sealed and 40 μl/well of scintillation cocktail was added.
10. The plate was read by using a Microbeta^2 microplate counter.
1. For reference and test compounds, the results were expressed as % Inhibition, using the normalization equation: N=100−100×(U−C2)/(C1−C2), where U is the unknown value, C1 is the average of high controls, and C2 is the average of low controls.
2. The IC50 was determined by fitting percentage of inhibition as a function of compound concentrations with Hill equation using XLfit. […]
9. The filter plates were sealed and 40 μl/well of scintillation cocktail was added.

The mark [4] stands for this setting: cAMP assay with forskolin, stably transfected CHO-K1 cells, 30 min, read-out: EC50.
Setting [5] is: β-arrestin reporter, stably transfected U2OS cells, 120 min, read-out: EC50.

human 5-hydroxytryptamine receptor 2A (5-HT2A), sequence (P28223 whole entry): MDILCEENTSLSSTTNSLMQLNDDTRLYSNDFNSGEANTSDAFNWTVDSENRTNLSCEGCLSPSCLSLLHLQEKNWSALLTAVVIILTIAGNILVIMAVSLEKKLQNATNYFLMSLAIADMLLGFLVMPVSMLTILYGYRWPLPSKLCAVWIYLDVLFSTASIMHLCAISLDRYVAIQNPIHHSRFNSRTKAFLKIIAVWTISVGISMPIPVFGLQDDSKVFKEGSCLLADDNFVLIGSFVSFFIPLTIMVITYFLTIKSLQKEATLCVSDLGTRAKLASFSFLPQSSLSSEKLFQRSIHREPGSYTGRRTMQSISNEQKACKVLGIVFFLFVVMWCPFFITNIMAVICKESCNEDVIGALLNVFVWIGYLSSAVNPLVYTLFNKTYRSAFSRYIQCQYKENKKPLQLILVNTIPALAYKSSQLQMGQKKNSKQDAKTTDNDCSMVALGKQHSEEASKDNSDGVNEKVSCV
T2 sequence (P28223 whole entry): as above

Regarding `[2H]C([2H])(c1c[nH]c2ccc(OCCCCCN3C(=O)c4ccccc4C3=O)cc12)[C@H]1CCCN1C([2H])([2H])[2H]` [(R) I-245, (R)-2-(5-((3-((1-(Methyl-d3)pyrrolidin-2-yl)methyl-d2)-1H-indol-5-yl)oxy)pentyl)isoindoline-1,3-dione], the figures for the pEC50 in assay [1] (setting [4]) and in assay [2] (setting [5]) were 7.71 and 7.55, respectively. The “Emax (% of serotonin)” value in assay [1] is given as 99.14 % of serotonin; in assay [2] (β-arrestin reporter), 82.18 % of serotonin. In assay [3], the pIC50 (as a rule, the negative decadic logarithm of the IC50, by convention in mol/L) was 6.65.

Regarding `CN(C)CCc1c[nH]c2ccccc12` [DMT], the “Emax (% of serotonin)” value was 87.1 % of serotonin in assay [1] and 38.86 % of serotonin in assay [2] (β-arrestin reporter). Besides, the pEC50 (commonly the negative decadic logarithm of the EC50, by convention in mol/L) in assay [2] (setting [5]) was 6.94. The pIC50 in assay [3] ([3H]-ketanserin displacement, cell membrane, 27° C., 90 min, read-out: h5-HT2A, IC50) was 6.02.

With `[2H]C([2H])(c1c[nH]c2ccc(OCCCCCN3C(=O)[C@H]4CCCC[C@H]4C3=O)cc12)[C@H]1CCCN1C([2H])([2H])[2H]` [Cis (R) I-248, 2-(5-((3-(((R)-1-(Methyl-d3)pyrrolidin-2-yl)methyl-d2)-1H-indol-5-yl)oxy)pentyl)hexahydro-1H-isoindole-1,3(2H)-dione], the pEC50 in assay [1] (setting [4]) is 7.28; in assay [2] (setting [5]), 6.95. The “Emax (% of serotonin)” value in assay [1] is given as 96.76 % of serotonin; in assay [2] (β-arrestin reporter), 84.4 % of serotonin.

Take `COCCN1CCC[C@@H]1Cc1c[nH]c2ccc(OC)cc12` [(R) I-98, (R)-5-Methoxy-3-((1-(2-methoxyethyl)pyrrolidin-2-yl)methyl)-1H-indole]: the pEC50 in assay [1] (setting [4]) is 7.39; in assay [2] (setting [5]) it was 7.59. Also, the figures for the “Emax (% of serotonin)” value in assay [1] and in assay [2] (β-arrestin reporter) were 96.42 % of serotonin and 81.67 % of serotonin, respectively. This compound had a pIC50 in assay [3] of 6.46.

In the case of `CSc1ccc2[nH]cc(C[C@H]3CCCN3C)c2c1` [(R) I-1, (R)-3-((1-Methylpyrrolidin-2-yl)methyl)-5-(methylthio)-1H-indole], the pEC50 was 7.95 in assay [1] and 7.60 in assay [2]. Also, the “Emax (% of serotonin)” value is listed as 99.41 % of serotonin in assay [1] and 79.27 % of serotonin in assay [2] (β-arrestin reporter). The pIC50 in assay [3] is 6.81.

`[2H]C([2H])(c1c[nH]c2ccc(OCCCCCN3C(=O)C4CCCCC4C3=O)cc12)[C@H]1CCCN1C([2H])([2H])[2H]` (mixture of isomers) [Rac (R) I-248]: the pIC50 in assay [3] is 6.51.

Regarding `[2H]C([2H])(c1c[nH]c2ccc(OCCCCN3C(=O)c4ccccc4C3=O)cc12)[C@H]1CCCN1C([2H])([2H])[2H]` [(R) I-244, (R)-2-(4-((3-((1-(Methyl-d3)pyrrolidin-2-yl)methyl-d2)-1H-indol-5-yl)oxy)butyl)isoindoline-1,3-dione], the pEC50 in assay [1] (setting [4]) was 8.20; in assay [2] (setting [5]), 8.17. The “Emax (% of serotonin)” value in assay [1] was 99.01 % of serotonin; in assay [2] (β-arrestin reporter) it was 79.58 % of serotonin. Further, in assay [3], the pIC50 was 6.89.

For the origin of these results see patent US12606543B2, “Indole derivatives as serotonergic agents useful for the treatment of disorders related thereto” (priority 2023, dated 2026).
